Experimental data: publication PMC8909834, “An Orally Bioavailable and Highly Efficacious Inhibitor of CDK9/FLT3 for the Treatment of Acute Myeloid Leukemia” (Cancers, 2022)

Tests used:
[1] = Maximum tolerated dose in non-tumor bearing mice; assay type: in vivo
Method: In vivo efficacy of CDDD11-8 against AML xenografts in mice. The maximum tolerated dose (MTD) of CDDD11-8 was determined in non-tumor bearing female BALB/c nude (nu/nu) mice (n = 3). […] Our proposed maximum dose of CDDD11-8 was 150 mg/kg once daily for seven days. […] All the animals received 28 doses of vehicle or CDDD11-8 at 75 or 125 mg/kg strength. […] The tumor regression was maintained over the dosing period. On day 29, the tumors in the 75 mg/kg treated group had recommenced growth to variable degrees (Supplementary Table S3). […] On day 29, one and three mice from the 75 and 125 mg/kg CDDD11-8 treated groups, respectively, had unmeasurable tumor size (zero tumor volume).

[2] = Partition coefficient by shake flask assay; assay type: physicochemical; settings: octanol/aqueous phase, pH 7.4, read-out: Partition Coefficient LogD7.4 (octanol)
[3] = test system: MV4-11 cells; experiment: Western blotting of cellular signaling pathways; assay type: cell-based
Method: (§1) Western blotting. Western blotting was performed as described previously. Briefly, cells were lysed after incubation with different concentrations of compounds or control (0.1% DMSO) at the indicated times, samples were denatured at 95 °C for 5 min, and proteins having different molecular weights within each sample were separated by electrophoresis (Bio-Rad, Hercules, CA, USA) on polyacrylamide gels (4–20%, Bio-Rad). Resolved proteins were electrophoretically transferred onto a PVDF membrane and blocked by incubating with 10% w/v non-fat powdered milk dissolved in 1 × Tris-buffered saline-tween 20 (TBST) for 1 h at room temperature prior to incubating overnight with primary antibodies at 4 °C with slight shaking. Chemiluminescence was detected with a ChemiDoc^TM gel imaging system after the membranes have been exposed to ECL substrates (GE Healthcare, PA, USA), and the Image Lab software (Bio-Rad) was used for image capture. The primary antibodies used were: β-Actin (Invitrogen, Cat MA515739, 1:5000), β-Tubulin (Cell Signaling Technology, Cat 2146, 1:1000), AKT (Cell Signaling Technology, Cat 9272, 1:1000), c-MYC (Cell Signaling Technology, Cat 5605, 1:1000), Caspase-3 (Cell Signaling Technology, Cat 9665, 1:1000), Cleaved PARP (Cell Signaling Technology, Cat 5625, 1:1000), ERK1/2 (p44/42 MAPK, Cell Signaling Technology, Cat 4695, 1:1000), GAPDH (Invitrogen, Cat PA1987, 1:1000), MCL-1 (Cell Signaling Technology, Cat 942965, 1:1000), PARP (Cell Signaling Technology, Cat 9532, 1:1000), Phospho-AKT (Ser473) (Cell Signaling Technology, Cat 9271, 1:1000), Phospho-ERK (Thr202/Tyr204) (Cell Signaling Technology, Cat 4370, 1:1000), Phospho-FLT3 (Tyr591) (Cell Signaling Technology, Cat 3461, 1:1000), Phospho-STAT5 (Tyr694) (Cell Signaling Technology, Cat 9359, 1:1000), RNAP II CTD (BioLegend (CA, USA), Cat 664906, 1:1000), RNAP II CTD Phospho-Ser2 (BioLegend, Cat 920204, 1:1000), RNAP II CTD Phospho-Ser5 (Abcam, Cat ab5408, 1:1000), STAT5 (Cell Signaling Technology, Cat 9363, 1:1000), and XIAP (Cell Signaling Technology, Cat 14334, 1:1000). Bands were quantified using ImageJ software (US National Institutes of Health, Bethesda, MD, USA).

[4] = test system: MOLM-13 cells; experiment: Western blotting of cellular signaling pathways; assay type: cell-based; settings: MOLM-13, 24 h, concentration-dependent
Method: as §1

[5] = MV4-11, time-course, within 2 h

## Cc1cnc(N[C@H]2CC[C@H](N)CC2)nc1-c1cnc2ccc(-c3ccccc3)cn12 [CDDD11-8]
[1]; female, BALB/c nude (nu/nu), mouse, in vivo, oral, once daily for seven days
  MTD at 7 days: 150 mg/kg
[1]; oral 200 mg/kg, one mouse after five days, the rest after seven days
  body weight loss: > 15%
[1]; up to oral 150 mg/kg once daily for 7 days
  clinical signs of toxicity / weight loss: no overt clinical signs of toxicity or significant weight loss
[2]
  logD: 1.87
[3]; MV4-11
  level of p-FLT3 Tyr591: reduced
[3]; MV4-11, 1 µM, 24 h
  expression of MCL-1: reduced to almost undetectable levels
  expression of XIAP: reduced to almost undetectable levels
[3]; MV4-11, 0.3 and 1 µM, as early as 2 h
  expression of c-MYC: completely blocked
[3]; [5]
  reduction of p-RNAP II Ser2 level: approximately 20%
  reduction of p-RNAP II Ser5 level: approximately 20%
[4]
  phosphorylation of RNAP II CTD at Ser2 and Ser5: suppressed
